Literature values in PMC6377828 (Clinical cancer research : an official journal of the …, 2018).
Like-named read-outs stand apart in the source and are kept apart here.

Tested on: αvβ6-expressing xenograft tumor
Conditions: murine xenograft models

[^18F]FBA-A20FMDV2
tumor uptake (1 h): 0.66 % ID/g | tumor uptake (4 h): 0.06 % ID/g
